According to patent US20220306647A1, “NOVEL INDOLE-2-CARBOXAMIDES ACTIVE AGAINST THE HEPATITUS B VIRUS (HBV)” (AICURIS GMBH & CO. KG, priority 2019, published 2022):
Read-outs that look alike come from different tables or passages of the source.

Key:
[1] = tested on: HBV (HepAD38 cells); experiment: HBV replication assay: determination of HBV DNA from the supernatants of HepAD38 cells; type: cell-based; conditions: Hepatitis B virus, 144 h, HBV DNA in HepAD38 supernatant at day 6, qPCR, read-out: Cell activity
Outline: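 HepAD38 cells seeded without tetracycline and treated with half-log compound dilutions; tetracycline-treated wells serve as cell control. On day 6, supernatant HBV DNA was purified and quantified by real-time PCR against plasmid standards; EC50 from non-linear regression of relative copy numbers, three experiments in triplicate.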

[2] = target: T1, HBV core protein (C-terminal truncated core protein, 149 amino acids of the N-terminal assembly domain, BODIPY-FL labelled) (UniProt P03146); experiment: Biochemical capsid assembly assay (fluorescence quenching)
T1 construct: fused on or other part: A single cysteine added after residue 149, at position 150; It carries the BODIPY-FL maleimide label
Outline: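 Fluorescence quenching of BODIPY-FL-labelled core dimers (1.0 to 2.0 μM) in 50 mM HEPES pH 7.5; compounds at 8 concentrations, 0.5 log-unit dilutions from top 100, 31.6 or 10 μM, 0.5% DMSO. Assembly started with NaCl to […]; fluorescence (ex 477/em 525 nm) read after 6 min. EC50 by non-linear regression.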

[3] = assembly started with NaCl, fluorescence read after 6 min, read-out: Assembly activity
[4] = read-out: Assembly activity, assembly started with NaCl, fluorescence read after 6 min

T1 sequence (P03146 whole entry, the tested form may be a part): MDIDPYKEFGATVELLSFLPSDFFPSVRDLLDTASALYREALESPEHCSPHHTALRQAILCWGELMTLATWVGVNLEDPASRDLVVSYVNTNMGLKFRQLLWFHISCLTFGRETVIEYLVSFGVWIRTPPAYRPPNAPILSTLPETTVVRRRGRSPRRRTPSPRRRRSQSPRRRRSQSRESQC

SMILES	EC50 [1]	IC50 [2, 3]	IC50 [2, 4]
CN(CCO)C(=O)c1noc2c1CN(C(=O)c1cc3ccccc3[nH]1)CC2 [Example 22, N-(2-hydroxyethyl)-5-(1H-indole-2-carbonyl)-N-methyl-4H,5H,6H,7H-[1,2]oxazolo[4,5-c]pyridine-3-carboxamide]	< 1 µM	< 5 µM	
CN(C(=O)c1cnn2c1CN(C(=O)c1cc3ccccc3[nH]1)CC2)C1(c2cc(C(=O)O)on2)CC1 [Example 84]	< 1 µM		< 5 µM
CN(C(=O)c1noc2c1CN(C(=O)c1cc3ccccc3[nH]1)CC2)C1(c2cocn2)CC1 [Example 2, 5-(1H-indole-2-carbonyl)-N-methyl-N-[1-(1,3-oxazol-4-yl)cyclopropyl]-4H,5H,6H,7H-[1,2]oxazolo[4,5-c]pyridine-3-carboxamide]	< 1 µM	< 5 µM	
CN(C(=O)c1cnn2c1CN(C(=O)c1cc3ccccc3[nH]1)CC2)C1(Cc2ccc(C(=O)O)cc2)CC1 [Example 34, 4-({1-[N-methyl-5-(1H-indole-2-carbonyl)-4H,5H,6H,7H-pyrazolo[1,5-a]pyrazine-3-amido]cyclopropyl}methyl)benzoic acid]	1 to 10 µM	< 5 µM	
CN1C(=O)c2c3c(nn2CCC12CC2)CCN(C(=O)c1cc2ccccc2[nH]1)C3 [Example 63, 4′-(1H-indole-2-carbonyl)-13′-methyl-4′, 8′,9′,13′-tetraazaspiro[cyclopropane-1,12′-tricyclo[7.5.0.0^2,]tetradecane]-1′,7′-dien-14′-one]	< 1 µM	< 5 µM	
CN(C(=O)c1cnn2c1CN(C(=O)c1cc3c(F)c(F)c(F)cc3[nH]1)CC2)C1(c2ccc(C(=O)O)cc2)CC1 [Example 78, 4-{1-[N-methyl-5-(4,5,6-trifluoro-1H-indole-2-carbonyl)-4H,5H,6H,7H-pyrazolo[1,5-a]pyrazine-3-amido]cyclopropyl}benzoic acid]	< 1 µM	< 5 µM	
C[C@@H](NC(=O)c1noc2c1CN(C(=O)c1cc3c(Cl)cccc3[nH]1)CC2)C(F)(F)F [Example 104, 5-(4-chloro-1H-indole-2-carbonyl)-N-[(2R)-1,1,1-trifluoropropan-2-yl]-4H,5H,6H,7H-[1,2]oxazolo[4,5-c]pyridine-3-carboxamide]	< 1 µM	< 5 µM	
C[C@@H](NC(=O)c1noc2c1CN(C(=O)c1cc3c(F)c(F)ccc3[nH]1)CC2)C(F)(F)F [Example 105, 5-(4,5-difluoro-1H-indole-2-carbonyl)-N-[(2R)-1,1,1-trifluoropropan-2-yl]-4H,5H,6H,7H-[1,2]oxazolo[4,5-c]pyridine-3-carboxamide]	< 1 µM	< 5 µM	
CN(C(=O)c1noc2c1CN(C(=O)c1cc3ccccc3[nH]1)CC2)C1([C@H]2OC[C@H](N)CO2)CC1 [Example 108, 5-(1H-indole-2-carbonyl)-N-methyl-N-{1-[(2r,5r)-5-amino-1,3-dioxan-2-yl]cyclopropyl}-4H,5H,6H,7H-[1,2]oxazolo[4,5-c]pyridine-3-carboxamide]	< 1 µM	< 5 µM	
CCc1cccc2[nH]c(C(=O)N3CCn4ncc(C(=O)N(C)C5(c6ccc(C(=O)O)cc6)CC5)c4C3)cc12 [Example 83, 4-{1-[N-methyl-5-(4-ethyl-1H-indole-2-carbonyl)-4H,5H,6H,7H-pyrazolo[1,5-a]pyrazine-3-amido]cyclopropyl}benzoic acid]	< 1 µM	< 5 µM	
CN(C(=O)c1noc2c1CN(C(=O)c1cc3ccccc3[nH]1)CC2)C1(c2ncc(C(=O)O)cn2)CC1 [Example 98, 2-{1-[N-methyl-5-(1H-indole-2-carbonyl)-4H,5H,6H,7H-[1,2]oxazolo[4,5-c]pyridine-3-amido]cyclopropyl}pyrimidine-5-carboxylic acid]	1 to 10 µM	< 5 µM	
CN(C(=O)c1noc2c1CN(C(=O)c1cc3ccccc3[nH]1)CC2)C1CC1 [Example 11, N-cyclopropyl-5-(1H-indole-2-carbonyl)-N-methyl-4H,5H,6H,7H-[1,2]oxazolo[4,5-c]pyridine-3-carboxamide]	< 100 µM	< 5 µM	
O=C(c1cc2ccccc2[nH]1)N1CCc2nn3c(c2C1)C(=O)N(CCO)C1(CC3)CC1 [Example 89, 13′-(2-hydroxyethyl)-4′-(1H-indole-2-carbonyl)-4′, 8′,9′,13′-tetraazaspiro[cyclopropane-1,12′-tricyclo[7.5.0.0^2,7]tetradecane]-1′,7′-dien-14′-one]	< 1 µM	< 5 µM	
CN(C(=O)c1cnn2c1CN(C(=O)c1cc3ccccc3[nH]1)CC2)C1(c2ccc(C(=O)O)cc2)CC1 [Example 12, 4-{1-[N-methyl-5-(1H-indole-2-carbonyl)-4H,5H,6H,7H-pyrazolo[1,5-a]pyrazine-3-amido]cyclopropyl}benzoic acid]	< 1 µM	< 5 µM	
CN(C(=O)c1cnn2c1CN(C(=O)c1cc3c(Cl)c(F)c(Cl)cc3[nH]1)CC2)C1(c2ccc(C(=O)O)cc2)CC1 [Example 110, 4-{1-[N-methyl-5-(4,6-dichloro-5-fluoro-1H-indole-2-carbonyl)-4H,5H,6H,7H-pyrazolo [1,5-a]pyrazine-3-amido]cyclopropyl}benzoic acid]	< 1 µM		< 5 µM
O=C(c1cc2ccccc2[nH]1)N1CCc2onc(C(=O)N3CCCOCC34CC4)c2C1 [Example 96, 4-[5-(1H-indole-2-carbonyl)-4H,5H,6H,7H-[1,2]oxazolo[4,5-c]pyridine-3-carbonyl]-8-oxa-4-azaspiro[2.6]nonane]	< 1 µM	< 5 µM	
C[C@@H](NC(=O)c1noc2c1CN(C(=O)c1cc3ccccc3[nH]1)CC2)C(F)(F)F [Example 46, 5-(1H-indole-2-carbonyl)-N-[(2R)-1,1,1-trifluoropropan-2-yl]-4H,5H,6H,7H-[1,2]oxazolo[4,5-c]pyridine-3-carboxamide]	< 1 µM		< 5 µM
CN(C(=O)c1[nH]nc2c1CN(C(=O)c1cc3c(Cl)cccc3[nH]1)CC2)C1(c2ccc(C(=O)O)cc2)CC1 [Example 49, 4-{1-[N-methyl-5-(4-chloro-1H-indole-2-carbonyl)-2H,4H,5H,6H,7H-pyrazolo[4,3-c]pyridine-3-amido]cyclopropyl}benzoic acid]	1 to 10 µM	< 5 µM	
CN1C(=O)c2c3c(nn2CCC12CC2)CCN(C(=O)c1cc2cc(F)c(Cl)cc2[nH]1)C3 [Example 64, 4′-(6-chloro-5-fluoro-1H-indole-2-carbonyl)-13′-methyl-4′,8′,9′,13′-tetraazaspiro[cyclopropane-1,12′-tricyclo[7.5.0.0^2, Q]tetradecane]-1′,7′-dien-14′-one]	< 1 µM	< 5 µM	
CN(C(=O)c1cnn2c1CN(C(=O)c1cc3c(Cl)cccc3[nH]1)CC2)C1(c2ncc(C(=O)O)cn2)CC1 [Example 45, 2-{1-[N-methyl-5-(4-chloro-1H-indole-2-carbonyl)-4H,5H,6H,7H-pyrazolo[1,5-a]pyrazine-3-amido]cyclopropyl}pyrimidine-5-carboxylic acid]	1 to 10 µM	< 5 µM	
CN(C(=O)c1cnn2c1CN(C(=O)c1cc3c(Cl)cc(F)cc3[nH]1)CC2)C1(c2ccc(C(=O)O)cc2)CC1 [Example 81, 4-{1-[N-methyl-5-(4-chloro-6-fluoro-1H-indole-2-carbonyl)-4H,5H,6H,7H-pyrazolo[1,5-a]pyrazine-3-amido]cyclopropyl}benzoic acid]	< 1 µM	< 5 µM	
